Laboratory results: paper PMC7883289, “Synthesis of Paeonol-Ozagrel Conjugate: Structure Characterization and In Vivo Anti-Ischemic Stroke potential” (Frontiers in Pharmacology, 2021)

Experiments:
IL–6, IL–1β, TNF–α = test: ELISA assay for inflammatory cytokines in brain tissue of MCAO rats; type: in vivo; details: versus model group (p < 0.001), paeonol and OS 3 mg/kg, POC 4.5 mg/kg iv, n = 6
Protocol: Male Sprague Dawley (SD) rats weighing among 220 g-230 g (Anhui Medicine University, Hefei, China; certificate number: SCXK20190,003) were housed under ad libitum access to food and water with a standardized light-dark cycle condition (25 ± 2°C, 12-hour light/dark cycle). All the experimental protocols were performed in accordance with the Institutional Animal Care and Use Committee of Anhui University of Chinese Medicine (Animal ethics number: AHUCM-rats-2019001). We used the minimal number of study animals (n = 6 rats in each group for different experiments). The rats were fastened upon the operating table in a supine position after being anesthetized with 2% pelltobarbitalum natricum (50 mg/kg). After disinfection of the skin within close proximity of the operative region, the right common carotid artery (CCA), external carotid artery (ECA) and internal carotid artery (ICA) were exposed with blunt dissection. The CCA was temporarily ligated and the ECA were permanently ligated ([Liu et al., 2016]). […] According to the manufacturer's instructions, the levels of inflammatory cytokines (IL - 6, IL-1β, TNF-α; R&D Systems, Minneapolis, MN, United States) and TXA2 (Wuhan ColorfulGene Biological Technology Co., LTD) were detected using the commercial ELISA kits. The resultant colored products were measured the absorbance at 450 nm. […]

[1] = test system: middle cerebral artery occlusion (MCAO) rats; test: Measurement of infarct volume by TTC staining in MCAO rats; type: in vivo; details: 24 h after reperfusion, single iv dose: paeonol and OS 3 mg/kg, POC 4.5 mg/kg, n = 6
Protocol: Male Sprague Dawley (SD) rats weighing among 220 g-230 g (Anhui Medicine University, Hefei, China; certificate number: SCXK20190,003) were housed under ad libitum access to food and water with a standardized light-dark cycle condition (25 ± 2°C, 12-hour light/dark cycle). All the experimental protocols were performed in accordance with the Institutional Animal Care and Use Committee of Anhui University of Chinese Medicine (Animal ethics number: AHUCM-rats-2019001). We used the minimal number of study animals (n = 6 rats in each group for different experiments). The rats were fastened upon the operating table in a supine position after being anesthetized with 2% pelltobarbitalum natricum (50 mg/kg). After disinfection of the skin within close proximity of the operative region, the right common carotid artery (CCA), external carotid artery (ECA) and internal carotid artery (ICA) were exposed with blunt dissection. The CCA was temporarily ligated and the ECA were permanently ligated ([Liu et al., 2016]). A nylon monofilament surgical thread was introduced into the ICA to block the MCA when the blunted distal end met resistance. After 2 h of occlusion, reperfusion was accomplished to restore blood supply to the MCA area by removing the filament ([Li et al., 2009]; [Zhai et al., 2017]). […] Rats were split randomly into five groups, including the sham, model, paeonol, OS and POC group. After 2 h of reperfusion, the paeonol and OS groups received the drug by intravenous injection at a single dose of 3 mg/kg ([Imamura et al., 2003]; [Park et al., 2010]; [Gai et al., 2019]), which the doses of paeonol and OS uesd previously were benificial in rats and the dose of OS is within the clinical dose range. […] Cerebral infarction volume was determined using TTC staining. […] The infarction and total brain volume were quantified using ImageJ software. The infarct volume was calculated as a ratio of the infarcted tissue relative to the total area of the whole-brain coronal section ([Ye and Gao, 2008]; [Katayama et al., 2017]). […]

In the case of COc1ccc(C(C)=O)c(OC(=O)C=Cc2ccc(Cn3ccnc3)cc2)c1 [POC, paeonol-ozagrel conjugate], the “release of inflammatory cytokines (IL–6, IL–1β, TNF–α) in brain tissue” value (IL–6, IL–1β, TNF–α) is reported as “can inhibit the expression of three markers of inflammatory cytokines” and the “cerebral infarction volume percentage” value [1] is reported as 11.77% ± 2.53.
